For data set [1], the target named is Prostaglandin E2 receptor EP4 subtype (Homo sapiens, UniProt P35408). Nature of the data set: Agonist activity at human EP4 receptor.
Data set [2] has as its target T1, Prostaglandin E2 receptor EP1 subtype (Homo sapiens, UniProt P34995).
T1 sequence (P34995 whole entry): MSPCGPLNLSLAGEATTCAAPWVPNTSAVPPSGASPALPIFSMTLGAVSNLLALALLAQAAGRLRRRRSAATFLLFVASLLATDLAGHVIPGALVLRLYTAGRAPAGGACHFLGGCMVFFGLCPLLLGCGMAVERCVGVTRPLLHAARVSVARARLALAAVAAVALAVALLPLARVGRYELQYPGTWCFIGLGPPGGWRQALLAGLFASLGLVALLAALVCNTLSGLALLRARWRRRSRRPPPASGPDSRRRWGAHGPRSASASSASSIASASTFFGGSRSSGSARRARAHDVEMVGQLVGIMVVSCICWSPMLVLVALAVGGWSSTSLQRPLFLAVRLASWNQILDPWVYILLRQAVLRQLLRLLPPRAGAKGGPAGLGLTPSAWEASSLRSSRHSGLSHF
The data set can be described thus: Binding affinity to human EP1 receptor.

Data set [3] deals with Prostaglandin E2 receptor EP2 subtype (Homo sapiens, UniProt P43116). Nature of the data set: Agonist activity at human EP2 receptor.
In data set [4] the target is T2, Prostaglandin E2 receptor EP3 subtype (Homo sapiens, UniProt P43115).
T2 sequence (P43115 whole entry): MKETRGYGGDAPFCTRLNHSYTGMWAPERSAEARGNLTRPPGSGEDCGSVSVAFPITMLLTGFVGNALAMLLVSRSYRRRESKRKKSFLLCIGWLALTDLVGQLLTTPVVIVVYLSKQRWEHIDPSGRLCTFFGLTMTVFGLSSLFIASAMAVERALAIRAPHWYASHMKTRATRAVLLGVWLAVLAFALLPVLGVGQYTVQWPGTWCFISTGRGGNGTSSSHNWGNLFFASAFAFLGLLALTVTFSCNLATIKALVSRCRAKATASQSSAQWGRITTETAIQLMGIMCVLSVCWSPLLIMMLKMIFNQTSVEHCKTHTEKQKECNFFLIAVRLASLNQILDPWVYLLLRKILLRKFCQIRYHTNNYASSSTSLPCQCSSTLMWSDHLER
Nature of the data set: Agonist activity at human EP3 receptor.

Data set [5] is described as follows: Clearance in rat at 0.01 mg/kg, iv. In kind it is ADME, organism-based. As to conditions: in vivo.
Data set [6] in a line: AUC in rat at 1 mg/kg, po. In kind it is ADME, organism-based. As to conditions: in vivo.
Data set [7] can be described thus: Half life in rat at 0.01 mg/kg, iv. As to conditions: in vivo. The format is ADME, organism-based.
A short description of data set [8]: Oral bioavailability in rat at 1 mg/kg. The format is ADME, organism-based. The settings on record: in vivo.

Prostaglandin E2 receptor EP2 subtype, sequence (P43116 whole entry): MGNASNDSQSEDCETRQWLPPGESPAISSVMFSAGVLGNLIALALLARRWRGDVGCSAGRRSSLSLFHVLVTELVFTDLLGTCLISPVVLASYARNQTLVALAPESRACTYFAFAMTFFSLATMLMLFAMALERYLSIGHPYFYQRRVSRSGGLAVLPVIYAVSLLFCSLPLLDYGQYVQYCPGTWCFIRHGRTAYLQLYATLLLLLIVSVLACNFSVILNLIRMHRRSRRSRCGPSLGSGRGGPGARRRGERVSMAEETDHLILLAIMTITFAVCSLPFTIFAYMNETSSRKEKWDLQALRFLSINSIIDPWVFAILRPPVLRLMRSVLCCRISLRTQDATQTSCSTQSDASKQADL
Prostaglandin E2 receptor EP4 subtype, sequence (P35408 whole entry): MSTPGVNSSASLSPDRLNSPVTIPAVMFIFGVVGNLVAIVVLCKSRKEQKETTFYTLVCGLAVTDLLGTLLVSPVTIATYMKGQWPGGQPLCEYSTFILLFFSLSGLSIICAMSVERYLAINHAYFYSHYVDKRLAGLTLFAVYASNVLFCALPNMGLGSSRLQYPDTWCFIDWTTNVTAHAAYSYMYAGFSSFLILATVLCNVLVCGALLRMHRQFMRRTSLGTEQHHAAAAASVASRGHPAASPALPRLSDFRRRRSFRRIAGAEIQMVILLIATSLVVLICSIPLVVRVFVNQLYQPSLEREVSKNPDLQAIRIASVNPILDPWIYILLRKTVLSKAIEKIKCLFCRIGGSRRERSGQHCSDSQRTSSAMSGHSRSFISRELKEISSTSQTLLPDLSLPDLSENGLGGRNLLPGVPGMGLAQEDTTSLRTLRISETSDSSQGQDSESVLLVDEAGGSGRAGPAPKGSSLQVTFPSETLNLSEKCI

A word on the EC50: it is the concentration at which the effect is half-maximal. What is called Ki is the equilibrium dissociation constant of an inhibitor or competing ligand from its target. High values mean a looser hold on the target, low ones a stronger hold on the target. With `COCCCC1([C@H](O)/C=C/[C@H]2COC(=O)N2CCSc2nc(C(=O)O)cs2)CCC1`, the EC50 in data set [1] is 705 nM; in data set [3], 18 nM; in data set [4] it was 25 nM. Besides, the Ki in data set [2] was greater than 10000 nM.
For `CC(C)(C)CCC1([C@H](O)/C=C/[C@H]2COC(=O)N2CCSc2nc(C(=O)O)cs2)CCC1`, in that order: 4710 nM, 3700 nM, 6.7 nM and 149 nM.
The corresponding values for `CCCCC(C)(C)[C@H](O)/C=C/[C@H]1COC(=O)N1CCSc1nc(C(=O)O)cs1` are 320 nM, 7.4 nM, 50 nM and 120 nM.
The corresponding values for `CCOCCC1([C@H](O)/C=C/[C@H]2COC(=O)N2CCSc2nc(C(=O)O)cs2)CCC1` are 745 nM, 29 nM, 2610 nM and 8420 nM.
In the case of `CC(C)(CCCCF)[C@H](O)/C=C/[C@H]1COC(=O)N1CCSc1nc(C(=O)O)cs1`, the figures for the concentration giving a half-maximal response (EC50) in data set [1], in data set [3] and in data set [4] were 1220 nM, 5.7 nM and 4.7 nM, respectively. The molecule also yielded a Ki in data set [2] of 431 nM.
As to `CCCCC(C)(C)[C@H](O)/C=C/[C@H]1CCC(=O)N1CCSc1nc(C(=O)O)cs1`, the concentration giving a half-maximal response (EC50) worked out at 4.2 nM in data set [1], 0.91 nM in data set [3] and 8.4 nM in data set [4].
In the case of `CCCCC1([C@H](O)/C=C/[C@H]2COC(=O)N2CCSc2nc(C(=O)O)cs2)CCC1`, the EC50 in data set [1] worked out at 73 nM; in data set [3], 2.9 nM; in data set [4], 3.9 nM. Further, the Ki in data set [2] was found to be 220 nM.
For `O=C(O)c1csc(SCCN2C(=O)OC[C@@H]2/C=C/[C@@H](O)C2(CCc3ccccc3)CCC2)n1`, the EC50 was 465 nM in data set [1], 160 nM in data set [3] and 27 nM in data set [4]. In addition, the affinity in data set [2], expressed as Ki, was 802 nM.
As to `CCCC[C@H](C)C[C@H](O)/C=C/[C@H]1CCC(=O)N1CCSc1nc(C(=O)O)cs1`, the EC50 in data set [1] worked out at 3 nM; in data set [3], 0.39 nM; in data set [4] it was 310 nM.
Turning to `CC#CCC1([C@H](O)/C=C/[C@H]2COC(=O)N2CCSc2nc(C(=O)O)cs2)CCC1`, the results for the EC50 in data set [1], in data set [3] and in data set [4] were 240 nM, 21 nM and 18 nM, respectively. The molecule further yielded a Ki in data set [2] of 89 nM.
One may read the clearance as the volume of plasma or blood freed of the substance per unit of time. Usually AUC stands for the area under the concentration-time curve, a measure of exposure. A lower AUC goes with low exposure. The term half-life denotes the time in which the quantity being followed falls by half. The low end stands for fast loss, the high end for slow loss. Broadly, the bioavailability is dose-corrected exposure relative to a reference, in per cent. Consider `O=C(O)c1csc(SCCN2C(=O)OC[C@@H]2/C=C/[C@@H](O)C2(CCCCF)CCC2)n1`, for which the EC50 in data set [1] came out at 195 nM; in data set [3] it was 2.9 nM; in data set [4], 10 nM. This molecule also displayed a clearance in data set [5] of 9.5 mL/min/kg. Further, in data set [6], the AUC worked out at 41 ng·h/mL. Also, in data set [2], the Ki came to 1080 nM. The same molecule showed a half-life in data set [7] of 4.4 h. In data set [8], the bioavailability turned out to be 2.5%.
As for `O=C(O)c1csc(SCCN2C(=O)OC[C@@H]2/C=C/[C@@H](O)C2(CCC3CCCCC3)CCC2)n1`, the figures for the EC50 in data set [1], in data set [3] and in data set [4] were 8390 nM, 60 nM and 7.4 nM, respectively. This molecule also returned a Ki in data set [2] of 1330 nM.

Values taken from ChEMBL document CHEMBL3751723, “Discovery of highly potent dual EP(2) and EP(3) agonists with subtype selectivity” (Bioorg Med Chem Lett, 2016).
